This is an account of results in patent publication US6362341B1, “Benzyl compounds which inhibit leukocyte adhesion mediated by VLA-4” (Athena Neurosciences, Inc., priority 1997, dated 2002).

Non-standard residues stand in square brackets, D forms with d. Residues, ends and D or L forms follow the SMILES beside them. *: point of attachment. Tos = Cc1ccc(S(=O)(=O)*)cc1; Thz = O=C(O)[C@@H]1CSCN1

Usually melting point stands for the temperature of the solid-liquid transition.

Test system in one data set: not given
Assay: not given
Settings: not given
With `Cc1ccc(S(=O)(=O)N2CCC[C@H]2C(=O)NC(Cc2ccccc2)C(=O)NCCC(=O)O)cc1` (mixture of isomers) [Example 45, N-(Toluene-4-sulfonyl)-L-prolyl-D,L-phenylalanyl-β-alanine], the melting point lay in the range of 91 to 95 °C.
The same measure, in the same setting: then `Cc1ccc(S(=O)(=O)N2CCC[C@H]2C(=O)NC(Cc2nc[nH]n2)C(=O)O)cc1` (mixture of isomers) [Example 66, N-(Toluene-4-sulfonyl)-L-prolyl-D,L-β-(1,2,4-triazol-3-yl)alanine], with 153 to 163 °C; and `O=C(O)[C@H](Cc1ccccc1)NC(=O)[C@@H]1CCCN1S(=O)(=O)c1ccc(Cl)cc1` [Example 10, N-(4-Chlorobenzenesulfonyl)-L-prolyl-L-phenylalanine], with 69 to 71 °C; and `COC(=O)c1ccccc1S(=O)(=O)N1CCC[C@H]1C(=O)N[C@@H](Cc1ccccc1)C(=O)O` [Example 18, N-(2-Methoxycarbonylbenzenesulfonyl)-L-prolyl-L-phenylalanine], with 163 to 165 °C.
On the same count and under the same terms, then `Cc1ccc(S(=O)(=O)N2CSC[C@H]2C(=O)N[C@@H](Cc2ccccc2)C(=O)O)cc1` [Example 20, N-(Toluene-4-sulfonyl)-L-thiaprolyl-L-phenylalanine] (Tos-[Thz]-Phe-OH), with 60 to 65 °C; and `O=C(O)[C@H](Cc1ccccc1)NC(=O)[C@@H]1CCCN1S(=O)(=O)c1ccc([N+](=O)[O-])cc1` [Example 27, N-(4-Nitrobenzenesulfonyl)-L-prolyl-L-phenylalanine], with 70 to 80 °C; and `Cc1ccc(S(=O)(=O)N2CCC[C@H]2C(=O)N[C@@H](Cc2ccccc2)C(=O)NOCc2ccccc2)cc1` [Example 43, N-(Toluene-4-sulfonyl)-L-prolyl-L-phenylalanine N-Benzyloxyamide], with 127 to 130 °C.

A further data set has as its system Experimental Autoimmune Encephalomyelitis (EAE) model, motor impairment. The data set is described as follows: In vivo evaluation - Experimental Autoimmune Encephalomyelitis (EAE). Set-up: species or system Lewis rats or Hartley guinea pigs. The conditions noted are these: active = delayed onset of symptoms, e.g. clinical scores no greater than 2 or slowed body weight loss as compared to the control; treatment from Day 8, bid, five days.
For the compound `Cc1ccc(S(=O)(=O)N2CCC[C@H]2C(=O)N[C@@H](Cc2ccccc2)C(=O)O)cc1` [Example 3, N-(Toluene-4-sulfonyl)-L-prolyl-L-phenylalanine] (Tos-Pro-Phe-OH), the “activity in EAE model (delay of onset of symptoms)” value was “active”.
